# Test results from patent publication US9809545B2, “Factor XIa inhibitors” (Merck Sharp & Dohme Corp., priority 2013, dated 2017).
# Target: purified human Factor XIa (Homo sapiens (Human), UniProt P03951)
# Assay: Factor XIa Assay
# Assay type: biochemical
# Conditions: purified human Factor XIa 40 pM; substrate Z-Gly-Pro-Arg-AFC 100 μM; 50 mM HEPES pH 7.4; read-out: hFXIa Ki
# purified human Factor XIa, sequence (P03951 388-625): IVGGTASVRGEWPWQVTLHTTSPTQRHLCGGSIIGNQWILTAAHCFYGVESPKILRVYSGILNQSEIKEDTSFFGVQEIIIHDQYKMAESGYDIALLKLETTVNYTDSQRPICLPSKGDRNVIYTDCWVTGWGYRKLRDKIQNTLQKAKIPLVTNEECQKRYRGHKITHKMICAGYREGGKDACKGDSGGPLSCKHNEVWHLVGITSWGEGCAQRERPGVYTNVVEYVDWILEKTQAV
# purified human Factor XIa, sequence (P03951 19-387 partner): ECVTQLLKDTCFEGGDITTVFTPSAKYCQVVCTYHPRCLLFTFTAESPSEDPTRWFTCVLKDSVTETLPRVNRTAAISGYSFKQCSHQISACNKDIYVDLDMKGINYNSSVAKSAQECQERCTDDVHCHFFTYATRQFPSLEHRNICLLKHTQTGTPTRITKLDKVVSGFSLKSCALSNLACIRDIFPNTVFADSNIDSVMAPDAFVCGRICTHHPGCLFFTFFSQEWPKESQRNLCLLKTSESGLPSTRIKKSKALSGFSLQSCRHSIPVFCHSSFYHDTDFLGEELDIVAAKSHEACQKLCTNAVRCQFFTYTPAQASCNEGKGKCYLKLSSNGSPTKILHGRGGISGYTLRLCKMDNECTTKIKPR
row,Structure (SMILES),Ki [nM]
1,"O=C(O)c1ccc(NC(=O)[C@H](Cc2ccc(F)cc2)n2ccc(-c3cc(Cl)ccc3-n3cnnn3)cc2=O)cc1 [Example 1Ea, (S)-4-(2-(4-(5-chloro-2-(1H-tetrazol-1-yl)phenyl)-2-oxopyridin-1(2H)-yl)-3-(4-fluorophenyl)propanamido)benzoic acid]",6
2,"N=C(N)c1ccc(-c2ccn(C(Cc3ccccc3)C(=O)Nc3ccc(C(=O)O)cc3)c(=O)c2)cc1 (centres unmarked) [Example 2d, 4-(2-(4-(4-carbamimidoylphenyl)-2-oxopyridin-1(2H)-yl)-3-phenylpropanamido)benzoic acid]",370
3,"O=C(O)c1ccc2[nH]c([C@H](Cc3ccc(F)cc3)n3ccc(-c4cc(Cl)ccc4-n4cnnn4)cc3=O)nc2c1 [Example 3Bd, (S)-2-(1-(4-(5-chloro-2-(1H-tetrazol-1-yl)phenyl)-2-oxopyridin-1(2H)-yl)-2-(4-fluorophenyl)ethyl)-1H-benzo[d]imidazole-5-carboxylic acid]",< 5
4,"O=c1cc(-c2cc(Cl)ccc2-n2cnnn2)ccn1C(Cc1ccc(F)cc1)c1nc(-c2ccc(F)cc2)c[nH]1 (centres unmarked) [Example 4Af, 4-(5-chloro-2-(1H-tetrazol-1-yl)phenyl)-1-(2-(4-fluorophenyl)-1-(4-(4-fluorophenyl)-1H-imidazol-2-yl)ethyl)pyridin-2(1H)-one]",154
5,"N#Cc1ccc(-c2cnc([C@@H](Cc3ccc(F)cc3)n3ccc(-c4cc(Cl)ccc4-n4cnnn4)cc3=O)[nH]2)cc1 [Example 4Cl, (R)-4-(2-(1-(4-(5-chloro-2-(1H-tetrazol-1-yl)phenyl)-2-oxopyridin-1(2H)-yl)-2-(4-fluorophenyl)ethyl)-1H-imidazol-5-yl)benzonitrile]",< 5
6,"O=c1cc(-c2cc(Cl)ccc2-n2cnnn2)ccn1[C@@H](Cc1ccc(F)cc1)c1nc2cc(P(=O)(O)O)ccc2[nH]1 [Example 5b, (S)-(2-(1-(4-(5-chloro-2-(1H-tetrazol-1-yl)phenyl)-2-oxopyridin-1(2H)-yl)-2-(4-fluorophenyl)ethyl)-1H-benzo[d]imidazol-5-yl)phosphonic acid]",< 5

# Results, then the compound that gave them:
row,Ki [nM],Structure (SMILES)
1,400,"CCOC(=O)Nc1ccc(NC(=O)C(Cc2ccccc2)n2ccc(-c3cc(Cl)ccc3[N+](=O)[O-])cc2=O)cc1 (centres unmarked) [Example 1Ag, ethyl (4-(2-(4-(5-chloro-2-nitrophenyl)-2-oxopyridin-1(2H)-yl)-3-phenylpropanamido)phenyl)carbamate]"
2,340,"COC(=O)Nc1ccc(CNC(=O)C(Cc2ccccc2)n2ccc(-c3cc(Cl)ccc3[N+](=O)[O-])cc2=O)cc1 (centres unmarked) [Example 1Al, methyl (4-((2-(4-(5-chloro-2-nitrophenyl)-2-oxopyridin-1(2H)-yl)-3-phenylpropanamido)methyl)phenyl)carbamate]"
3,> 10000,"O=C(C(Cc1ccccc1)n1ccc(-c2cc(Cl)ccc2[N+](=O)[O-])cc1=O)N1CCC(N2CC[C@@H](O)C2)CC1 (stereo partly drawn) [Example 1Aw, 4-(5-chloro-2-nitrophenyl)-1-(1-(4-((R)-3-hydroxypyrrolidin-1-yl)piperidin-1-yl)-1-oxo-3-phenylpropan-2-yl)pyridin-2(1H)-one]"
4,< 5,"O=C(O)c1ccc(NC(=O)[C@H](Cc2ccccc2)n2ccc(-c3cc(Cl)ccc3-n3cnnn3)cc2=O)cc1 [Example 1Ef, (S)-4-(2-(4-(5-chloro-2-(1H-tetrazol-1-yl)phenyl)-2-oxopyridin-1(2H)-yl)-3-phenylpropanamido)benzoic acid]"
5,6,"O=C(O)c1ccc(NC(=O)[C@@H](Cc2ccccc2)n2ccc(-c3cc(Cl)ccc3-n3cnnn3)cc2=O)cc1 [Example 1Ff, (R)-4-(2-(4-(5-chloro-2-(1H-tetrazol-1-yl)phenyl)-2-oxopyridin-1(2H)-yl)-3-phenylpropanamido)benzoic acid]"
6,7750,"O=C(O)c1ccc(NC(=O)C(Cc2ccccc2)n2ccc(-c3cnccc3Cl)cc2=O)cc1 (centres unmarked) [Example 2Af, 4-(2-(4-chloro-2′-oxo-[3,4′-bipyridin]-1′(2′H)-yl)-3-phenylpropanamido)benzoic acid]"
7,< 5,"O=C(O)c1ccc2[nH]c([C@H](Cc3ccccc3)n3ccc(-c4cc(Cl)ccc4-n4cnnn4)cc3=O)nc2c1 [Example 3g, (S)-2-(1-(4-(5-chloro-2-(1H-tetrazol-1-yl)phenyl)-2-oxopyridin-1(2H)-yl)-2-phenylethyl)-1H-benzo[d]imidazole-5-carboxylic acid]"
8,< 5,"O=c1cc(-c2cc(Cl)ccc2-n2cnnn2)ccn1C(Cc1ccccc1)c1nc(-c2cccnc2)c[nH]1 (centres unmarked) [Example 4Aa, 4-(5-chloro-2-(1H-tetrazol-1-yl)phenyl)-1-(2-phenyl-1-(4-(pyridin-3-yl)-1H-imidazol-2-yl)ethyl)pyridin-2(1H)-one]"
